Measured values taken from patent publication US20140295417A1, “IDENTIFICATION OF ANTIBIOTIC RESISTANCE” (priority 2011, published 2014).
Read-outs that look alike come from different tables or passages of the source. Where a SMILES comes first, the peptide text is derived from it. Bridges are numbered along the chain shown (N, C = ends). [ ]: non-standard residue; d: D form. The star is where a group is joined. NMePhe(4-NMe2) = CN[C@@H](Cc1ccc(N(C)C)cc1)C(=O)O; Pip(4-oxo) = O=C1CCN[C@H](C(=O)O)C1; Picolinoyl(3-OH) = O=C(c1ncccc1O)*; Phg = N[C@H](C(=O)O)c1ccccc1; dAbu = CC[C@@H](N)C(=O)O

Key:
23S rRNA = conditions: cited from earlier work
[1] = test system: HLAR, High level Aminoglycoside Resistance in Enterococci; assay: Binding of fluorescently labelled antibiotic, resistant vs non-resistant form (Table 3); type: cell-based; conditions: resistant relative to non-resistant form
Protocol: (§1) Table 3: Antibiotic resistance mechanism in clinically relevant micro-organisms and alteration in the amount of antibiotics in resistant micro-organisms. The alteration of the amount of detectable labelled antibiotics in micro-organisms in its resistant form is determined relative to its non-resistant form. The amount is expressed in % change of fluorescence (decrease and increase, respectively) of an antibiotic which carries a fluorescent label.

[2] = test system: VRE, Vancomycin resistant Enterococci; conditions: mechanism column; reduction of affinity in resistant form; cited from earlier work
[3] = test system: VRS, Vancomycin resistant Staph; assay: Binding of fluorescently labelled antibiotic, resistant vs non-resistant form (Table 3); type: cell-based, Staphylococci (CNS); conditions: increased binding; fluorescent-labelled antibiotic, resistant relative to non-resistant form
Protocol: as §1

[4] = test system: VRE, Vancomycin resistant Enterococci; assay: as above; type: cell-based; conditions: resistant relative to non-resistant form
Protocol: as §1

[5] = test system: VISA, Vancomycin intermediary SA; assay: as above; type: cell-based, Staphylococcus aureus; conditions: increased binding; fluorescent-labelled antibiotic, resistant relative to non-resistant form
Protocol: as §1

[6] = test system: ESBL, Extended Spectrum β-Lactamase Enterobacteriaceae; assay: as above; type: cell-based; conditions: increase of binding; fluorescent-labelled antibiotic, resistant relative to non-resistant form
Protocol: as §1

[7] = test system: ESBL, Extended Spectrum β-Lactamase Stenotrophomonas maltophilla; assay: as above; type: cell-based; conditions: increase of binding; fluorescent-labelled antibiotic, resistant relative to non-resistant form
Protocol: as §1

[8] = test system: ESBL, Extended Spectrum β-Lactamase Acinetobacter; assay: as above; type: cell-based; conditions: increase of binding; fluorescent-labelled antibiotic, resistant relative to non-resistant form
Protocol: as §1

[9] = test system: ESBL, Extended Spectrum β-Lactamase BCC; assay: as above; type: cell-based; conditions: increase of binding; fluorescent-labelled antibiotic, resistant relative to non-resistant form
Protocol: as §1

[10] = test system: ESBL, Extended Spectrum β-Lactamase Pseudomonas spp.; assay: as above; type: cell-based; conditions: increase of binding; fluorescent-labelled antibiotic, resistant relative to non-resistant form
Protocol: as §1

[11] = test system: CA-MRSA, Community acquired MRSA; type: cell-based, Staphylococcus aureus; conditions: resistant relative to non-resistant form
Protocol: as §1

[12] = test system: BORSA, Border line oxacillin resistant SA; assay: Binding of fluorescently labelled antibiotic, resistant vs non-resistant form (Table 3); type: cell-based, Staphylococcus aureus; conditions: resistant relative to non-resistant form
Protocol: as §1

[13] = test system: ORSA, Oxacillin resistant SA; assay: as above; type: cell-based, Staphylococcus aureus; conditions: resistant relative to non-resistant form
Protocol: as §1

[14] = test system: MRSA, Methicillin Resistant SA; assay: as above; type: cell-based, Staphylococcus aureus; conditions: resistant relative to non-resistant form
Protocol: as §1

[15] = reduction of binding, fluorescent-labelled antibiotic

Compound: [H]/N=C(/N)N[C@H]1[C@H](O)[C@@H](O)[C@H](O[C@@H]2O[C@@H](C)[C@](O)(C=O)[C@H]2O[C@@H]2O[C@@H](CO)[C@H](O)[C@@H](O)[C@@H]2NC)[C@@H](N/C(N)=N\[H])[C@@H]1O [Streptomycin]
- Phenotype (23S rRNA; 23S rRNA position 2661, "G to C", E. coli, when expressed with Smr, hyperaccurate S12 mutation): streptomycin dependent
- % Change in Fluorescenc [1, 15]: >80% reduction
- Effect of resistance on fluorescence [1]: Reduction in Streptomycin binding

Compound: CN[C@H](CC(C)C)C(=O)N[C@H]1C(=O)N[C@@H](CC(N)=O)C(=O)N[C@H]2C(=O)N[C@H]3C(=O)N[C@H](C(=O)N[C@H](C(=O)O)c4cc(O)cc(O)c4-c4cc3ccc4O)[C@H](O)c3ccc(c(Cl)c3)Oc3cc2cc(c3O[C@@H]2O[C@H](CO)[C@@H](O)[C@H](O)[C@H]2O[C@H]2C[C@](C)(N)[C@H](O)[C@H](C)O2)Oc2ccc(cc2Cl)[C@H]1O [Vancomycin]
- Reduced affinity to Van [2]: Reduced affinity to Van by 3 orders of magnitude
- % Change in Fluorescenc [3]: >50%
- % Change in Fluorescenc [4, 15]: >80%
- Effect of resistance on fluorescence [4]: Reduction of vancomycin
- % Change in Fluorescenc [5]: 20-50%

Compound: O=C(O)[C@H]1/C(=C/CO)O[C@@H]2CC(=O)N21 [clavulanic acid]
- % Change in Fluorescenc [6]: >80%
- % Change in Fluorescenc [7]: >80%
- % Change in Fluorescenc [8]: >80%
- % Change in Fluorescenc [9]: >80%
- % Change in Fluorescenc [10]: >80%

Compound: CC[C@H]1NC(=O)[C@@H](NC(=O)c2ncccc2O)[C@@H](C)OC(=O)[C@H](c2ccccc2)NC(=O)[C@@H]2CC(=O)CCN2C(=O)[C@H](Cc2ccc(N(C)C)cc2)N(C)C(=O)[C@@H]2CCCN2C1=O [pristinamycin 1A] ({Picolinoyl(3-OH)}-T[dAbu]P[NMePhe(4-NMe2)][Pip(4-oxo)][Phg]; ester 1-C)
- Phenotype (binding on peptidyl transferase loop) (23S rRNA; 23S rRNA position 2500, U2500A/C2501A, E. coli): Inhibits binding of 1A
- Phenotype (binding on peptidyl transferase loop) (23S rRNA; 23S rRNA position 2602, A2602C/C2501A, E. coli): Inhibits binding of 1A

Compound: CSC[S@+]([O-])C[C@H](CO)NC(=O)/C=C/c1c(C)[nH]c(=O)[nH]c1=O [sparsomycin]
- Phenotype (resistance) (23S rRNA; 23S rRNA position 2452 "C to U", Halobacterium halobium (Tan et al. 1996)): Low level sparsomycin

Compound: C=C(NC(=O)C(=C)NC(=O)c1csc(C2=N[C@@H]3c4csc(n4)[C@H]4NC(=O)c5csc(n5)[C@H]([C@](C)(O)[C@@H](C)O)NC(=O)[C@H]5CSC(=N5)/C(=C/C)NC(=O)[C@H]([C@@H](C)O)NC(=O)c5csc(n5)[C@]3(CC2)NC(=O)[C@H](C)NC(=O)C(=C)NC(=O)[C@H](C)NC(=O)[C@H]([C@@H](C)CC)N[C@@H]2C=Cc3c([C@H](C)O)cc(nc3[C@H]2O)C(=O)O[C@@H]4C)n1)C(N)=O [thiostrepton]
- Phenotype: binding of thiostrepton (23S rRNA; 23S rRNA 1056 G to C, E. coli, RNA fragments): weakened in RNA
- Phenotype: drug binding affinity (23S rRNA; 23S rRNA 1067 A to C, E. coli): affinity is reduced similarly.
- Phenotype: level of resistance (23S rRNA; 23S rRNA 1067 A to C, E. coli): A to C or U confers high
- Phenotype: drug binding affinity (23S rRNA; 23S rRNA 1067 A to G, E. coli): affinity is reduced similarly.
- Phenotype: level of resistance (23S rRNA; 23S rRNA 1067 A to G, E. coli): confers intermediate level
- Phenotype: drug binding affinity (23S rRNA; 23S rRNA 1067 A to U, E. coli): affinity is reduced similarly.
- Phenotype: level of resistance (23S rRNA; 23S rRNA 1067 A to U, E. coli): A to C or U confers high
- Phenotype: thiostrepton resistance in poly (U) translation (23S rRNA; 23S rRNA 1067 A to U, E. coli, mutant constituted 30% of the total 23S rRNA pool in the ribosomes): ribosomes; exhibited 30%

Compound: COc1cc(Cc2cnc(N)nc2N)cc(OC)c1OC [trimethoprim]
- Effect of resistance on fluorescence [11]: binding. Maintaims binding

Compound: Penicillin [listing 1 of 2 here]
- % Change in Fluorescenc [11, 15]: > to ≈80%
- % Change in Fluorescenc [12, 15]: > to ≈80%
- % Change in Fluorescenc [13, 15]: > to ≈80%
- % Change in Fluorescenc [14, 15]: > to ≈80%
- Effect of resistance on fluorescence [14]: Reduction of Penicillin binding

Compound: Penicillin [listing 2 of 2 here]
- Effect of resistance on fluorescence [11]: Reduction of Penecillin
- Effect of resistance on fluorescence [12]: Reduction of Penecillin
- Effect of resistance on fluorescence [13]: Reduction of Penecillin

Compound: spiramycin
- Phenotype (23S rRNA; 23S rRNA position 2611, "C to G", Chlamydomonas reinhardtii (Gauthier et al. 1988)): spiramycin resistance
- Phenotype (23S rRNA; 23S rRNA position 2611, "C to G", Yeast mitochondria (Sor and Fukahara 1984)): spiramycin resistance
